For one test, the target named is human CXCR3. Also on record: method as in PMID 24174496, PMID 25576486. The conditions noted are these: cited from earlier work.
The target in another test is T1, CXCR3B (Homo sapiens, UniProt P49682).
T1 construct: crude membranes
T1 sequence (P49682 1-415 isoform P49682-2): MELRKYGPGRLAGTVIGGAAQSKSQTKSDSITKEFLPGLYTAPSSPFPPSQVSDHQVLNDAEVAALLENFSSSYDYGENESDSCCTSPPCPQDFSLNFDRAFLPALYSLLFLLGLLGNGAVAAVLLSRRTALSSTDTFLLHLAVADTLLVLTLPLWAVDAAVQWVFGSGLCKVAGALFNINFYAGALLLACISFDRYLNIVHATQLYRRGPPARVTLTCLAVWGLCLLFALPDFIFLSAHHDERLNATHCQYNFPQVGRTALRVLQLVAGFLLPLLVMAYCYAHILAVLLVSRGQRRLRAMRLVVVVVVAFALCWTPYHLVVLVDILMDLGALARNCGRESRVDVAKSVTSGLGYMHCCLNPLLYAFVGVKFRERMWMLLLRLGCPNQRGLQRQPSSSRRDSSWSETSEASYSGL
The experiment in a line: Competition binding assay with [125I]CXCL10 on membranes of CXCR3B-transfected HEK293 cells. The conditions noted are these: 80 pM 125I-CXCL10, Cheng-Prusoff. The protocol:
(§1) The equilibrium inhibition constants (Ki) value of 1 at CXCR3 receptor was measured through competition binding assay using NBI74330 (Tocris Bioscience, Bristol, UK), an antagonist of CXCR3 receptor, [^125I]CXCL10 (ViTrax Inc., Placentia, CA) and CXCR3 transfected human embryonic kidney (HEK) 293 cells. CXCR3 has two major variants, CXCR3A and CXCR3B, with distinctive biological roles, so two types of HEK293 cells containing each CXCR3 variant were prepared. Before the cell-binding assay, two cDNA constructs containing CXCR3 transcript variant A (CXCR3A, GenBank accession No. NM_001504; GenScript) and CXCR3 transcript variant B (CXCR3B, GenBank accession No. NM_001142797; GenScript) and HEK293 cells were purchased from GenScript Biotech (Piscataway, NJ) and ATCC (Manassas, VA), respectively. Then the cDNA constructs were transfected to HEK293 cells, and the transfected cells were cultured to get enough amount for the cell-binding assay. […] The IC50 value of 1 was measured based on the regression plot between the […] radioligand and the different concentrations of 1. […]
(§2) Radioligand binding was performed using crude HEK293 membranes overexpressing CXCR3A or CXCR3B as previously described. […] The Ki values of each competitive antagonist for specific ^125I-CXCL10 binding sites were calculated using the method of Cheng and Prusoff, as previously described. […]

The target in a further test is T2, CXCR3A (Homo sapiens, UniProt P49682).
T2 construct: crude membranes
T2 sequence (P49682 1-368): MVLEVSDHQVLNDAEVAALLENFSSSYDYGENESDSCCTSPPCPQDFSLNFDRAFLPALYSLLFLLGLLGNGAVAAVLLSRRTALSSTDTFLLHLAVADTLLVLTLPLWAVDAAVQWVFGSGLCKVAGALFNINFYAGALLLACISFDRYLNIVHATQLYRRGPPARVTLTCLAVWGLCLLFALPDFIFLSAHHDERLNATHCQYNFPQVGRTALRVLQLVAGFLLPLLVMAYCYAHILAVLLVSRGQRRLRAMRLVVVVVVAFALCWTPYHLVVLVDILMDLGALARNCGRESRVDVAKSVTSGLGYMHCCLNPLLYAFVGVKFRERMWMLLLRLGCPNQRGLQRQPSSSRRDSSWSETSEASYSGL
The experiment in a line: Competition binding assay with [125I]CXCL10 on membranes of CXCR3A-transfected HEK293 cells. The conditions noted are these: 80 pM 125I-CXCL10, Cheng-Prusoff. The procedure: as §1, §2

In the next test the test system is CXCR3. Also on record: method as in PMID 24486132. The conditions noted are these: read-out: binding affinity IC50; cited from earlier work.

As a reminder, the Kd is the free concentration of one partner at which half of the binding sites on the other are occupied at equilibrium, for simple one-to-one binding. One may read the Ki as a measure of affinity in units of concentration, obtained from inhibition or displacement. Broadly, the IC50 is the midpoint of a concentration-inhibition curve.

As for `CCNC(=O)c1cnc(N2CCN(C3CCN(Cc4ccc(Cl)cc4)CC3)[C@@H](CC)C2)c(Cl)c1` [VUF11211], the Kd on human CXCR3 is 650 pM.
`CC[C@H]1CN(c2ncc(-c3nnco3)cc2Cl)CCN1C1CCN(Cc2ccc(Cl)cc2F)CC1` [compound 1, (S)-2-(5-chloro-6-(4-(1-(4-chloro-2-fluorobenzyl)piperidin-4-yl)-3-ethylpiperazin-1-yl)pyridin-3-yl)-1,3,4-oxadiazole]: the Ki was determined as 310 ± 20 pM on CXCR3B and 810 ± 20 pM on CXCR3A. Also, the IC50 with CXCR3 is 800 pM.

Source of the values: paper PMC10338423, “Synthesis and preclinical evaluation of a novel fluorine-18 labeled small-molecule PET radiotracer for imaging of CXCR3 receptor in mouse models of atherosclerosis” (EJNMMI Research, 2023).
